Results on three compounds are retold here after article PMC9369794 (Molecules, 2022).

Series [1] in a line: TEAC assay using ABTS radical. Conditions: 6 min, ratio of slopes to trolox (melatonin dissolved in EtOH); for TEAC from DMSO: stock in DMSO diluted with PBS pH 7.4, 37 °C; for TEAC from THF: stock in THF diluted with PBS pH 7.4, 37 °C. The method, then: This method uses a redox reaction between ABTS^•+ radical cation and the examined antioxidants, which act as the reducing agents. […] As the carotenoids and the conjugates are poorly soluble in water, they were dissolved first either in small amounts of freshly distilled tetrahydrofuran (THF) or in dimethylsulfoxide (DMSO), and these stock solutions were diluted with phosphate-buffered saline (PBS) to the final nominal concentration.
The TEAC values were determined in isotonic phosphate buffer of pH 7.4. The buffer solution was made by dissolving 9.55 g of DPBS powder in distilled water to form 1L of solution (composition: 0.138 M NaCl, 0.0027 M KCl, 0.0081 M Na2HPO4, 0.0015 M KH2PO4). The assay was performed according to a literature process with slight modifications. The ABTS^•+ radical cation was produced by reacting 7 mM 2,2′-azino-bis(3-ethylbenzothiazoline-6-sulfonic acid) and 2.45 mM potassium persulfate in water. The stock ABTS^•+ solution was prepared 12–16 h before the experiments, and stored at room temperature in dark. The absorbance of the ABTS^•+ solution was set to 0.70 ± 0.05 at 734 nm by a ca. 100-fold dilution with phosphate-buffered saline (PBS). […] The stock solutions were diluted with PBS such that equal amounts of the diluted solutions were added to the ABTS^•+ reagent to obtain final antioxidants concentrations of 0.3125, 0.625, 1.25, 2.50, 3.75, 5 μM, respectively. In the blank (0 μM), the solutions of the antioxidants were substituted with THF or DMSO.
The antioxidants were incubated with ABTS^•+ solution at 37 °C for 6 min. During the reaction of ABTS^•+ with the antioxidants the absorbance of the solution decreases. The percentage inhibition of absorbance at 734 nm was calculated as (A0 − Aantioxidant)/A0, where A0 is the absorbance of the ABTS^•+ solution and Aantioxidant is the absorbance measured after the addition of the antioxidant. The determinations were carried out at each concentration in triplicate. The calculated values were plotted against the final concentration of the antioxidants. The slopes of the curves were compared with that for trolox, the TEAC value is the ratio of the slopes for the antioxidant and for trolox.

A short description of series [2]: Study of aggregation by UV-Vis spectrophotometry. It is filed as physicochemical. Conditions: for change of UV spectrum with increasing ratio of PBS: starting from THF solutions. From the text: It has been known for a long while that carotenoids or their derivatives can be prone to supramolecular organization in water or water-organic solvent mixtures. This behaviour is especially interesting because this higher organization can modulate or alter biological properties of carotenoids, as well [40]. A tendency to form supramolecular structures can be tested by recording the UV spectra in an organic solvent and increasing the ratio of water in the sample. […] We have some recent experience of such behaviour of carotenoid-flavonoid conjugates.
All of our adducts were tested with the method above using tetrahydrofurane (THF) or dimethylsulfoxide (DMSO) with increasing ratio of phosphate-buffered saline (PBS), which was the medium of the antioxidant measurements. […]
1. Study of Aggregation by UV-Vis Spectrophotometry
Starting from THF solutions: each conjugate was dissolved in freshly distilled THF and the solutions were diluted
either with THF or THF-PBS mixtures to obain final solutions of identical carotenoid concentration. […]
Figure S1. UV-spectra of 8’-apo-β-carotenol succinate ( 6) ( a) in THF and in THF-PBS mixtures ( 1:1 , 1:3); (b) in DMSO
Figure S2. UV-spectra of zeaxanthin bissuccinate ( 7) ( a) in THF and in THF-PBS mixtures ( 1:1 , 1:3); (b) in DMSO and
Figure S3. UV-spectra of zeaxanthin monosuccinate ( 11) ( a) in THF and in THF-PBS mixtures ( 1:1 , 1:3); (b) in DMSO […]

A short description of series [3]: Hydrodynamic diameter and colloidal stability of aggregates by dynamic light scattering. It is filed as physicochemical. The conditions noted are these: for mean size (hydrodynamic diameter) / zeta potential: 37 °C; for PDI: sd^2/mean size^2. The method, then:
In contrary, all spectra gave a hypsochromic shift and loss of fine-structure when the DMSO solutions were diluted with PBS, which refers to the formation of H-type (card-pack) aggregates (Figures S1–S12). Since DMSO-containing aqueous systems are more suitable for biological studies, we examined these solution by dynamic light scattering (DLS) spectroscopy to gain more information about the particles. The concentrations of the examined solutions were the same as used in the ABTS/TEAC measurements (0.3125–5.00 μM, see next section).
Size determination of aggregates and the colloidal stability of the sample dispersions were determined by dynamic light scattering measurements, where the hydrodynamic diameter of particles, and zeta potential values were collected. The number-weighted size distribution indicated one main peak in each case, the polydispersity index (PDI) was calculated as sd^2/mean size^2. For the particle size analysis Malvern Zetasizer Nano S instrument and for the zeta potential determination Malvern Zetasizer Nano Z instrument were used (Malvern Panalytical Ltd., Great Malvern, Worcestershire, UK). The measurements were carried out in autocorrelation mode, and the following parameters were kept constant: scattering angle 173°, attenuator 11 and its factor 0.0146, measurement position 4.65 mm. The concentrations of sample dispersions were between 0.3125 and 5 µM. The dispersion medium was PBS. Each samples was examined after 6 min incubation period at 37 °C.

Series [4] is described as follows: Water dispersibility. It is filed as physicochemical. The conditions noted are these: distilled water, sonication. The method, then:
About 2 mg of the examined substance was dispersed in 40 mL of distilled water and the suspension was sonicated for 2 min. The addition of water was continued with 10 mL portions, after each portion the mixture was sonicated for 2 min. This process was continued till a homogenous solution was observed by naked eye. Then, the solution was let to stand for an hour to inspect any precipitate formation, but no changes occurred in any of the cases.

The nature of series [5]: FRAP assay for the antioxidant capacity. Conditions: stock in THF, acetate buffer pH 3.0, 37 °C, 15 min; ratio of slopes to trolox (melatonin in EtOH). Also on record: key to FRAP: slope of concentration-absorbance line divided by Trolox slope. The method, then:
In the FRAP method the antioxidant reduces Fe^3+ to Fe^2+ in an acidic medium. These experiments were performed in an acetate buffer of pH 3.0, the stock solutions of the examined antioxidants were prepared in THF. The antioxidant capacities were compared to that of Trolox as a standard, just like in the ABTS assays.
A modified literature process was used. The FRAP reagent should also be prepared freshly each day. 2,4,6-Tris(2-pyridyl)-s-triazin (TPTZ) was dissolved in a 200 mM HCl solution and diluted with water to get a final 40 mM HCl and 10 mM TPTZ concentration. For the preparation of the FRAP reagent 30 mL of 20 mM FeCl3 solution and 30 mL of 10 mM TPTZ solution were mixed, and 300 mL of 300 mM acetate buffer with pH 3.0 was added (a pH lower than usual was used to avoid the precipitation of the TPTZ). The FRAP reagent was incubated at 37 °C for 15 min. 150 μL of antioxidant dissolved in THF was mixed with 2.85 mL FRAP reagent solution, and incubated at 37 °C for 15 min in dark. Measurements were carried out at each antioxidant concentration (0, 7.5; 10; 12.5; 15; 17.5 μM final concentration) in triplicate. In the 0 μM solution the antioxidant solution was substituted with acetate buffer (pH 3.0). The FRAP was determined at 600 nm: the absorbance values were plotted as a function of concentration of the sample compounds and that of Trolox for the standard reference data. The FRAP values were calculated as in the ABTS assays, i.e., the slope of the concentration-absorbance lines for the carotenoid derivatives was divided by that for the trolox.

The mark [6] stands for this setting: 0.3125 μM in PBS from DMSO stock.
Setting [7] is: 0.625 μM in PBS from DMSO stock.

On to `CC1=C(/C=C/C(C)=C/C=C/C(C)=C/C=C/C=C(C)/C=C/C=C(C)/C=C/C(=O)[C@]2(C)C[C@@H](OC(=O)CCC(=O)O)CC2(C)C)C(C)(C)C[C@H](OC(=O)CCC(=O)O)C1` [Compound 9, Capsanthin bissuccinate], for which the “TEAC from DMSO” value in series [1] is listed as 1.66. For the same compound, in series [1], the “TEAC from THF” value is 2.297. Also, in series [2], the “change of UV spectrum with increasing ratio of PBS” value was “did not cause much change”. Also, the “mean size (hydrodynamic diameter)” value in series [3] (setting [6]) came out at 241.5 nm; in series [3] (setting [7]), 10.71 nm; in series [3] (1.25 μM in PBS from DMSO stock) it was 28.78 nm; in series [3] (5 μM in PBS from DMSO stock), 19.31 nm. Besides, the zeta potential is 22.6 mV in series [3] (setting [6]); 20.1 mV in series [3] (setting [7]); 31.0 mV in series [3] (1.25 μM in PBS from DMSO stock); 51.3 mV in series [3] (2.5 μM in PBS from DMSO stock); 2.7 mV in series [3] (3.75 μM in PBS from DMSO stock); 0.0 mV in series [3] (5 μM in PBS from DMSO stock). Moreover, the PDI in series [3] (0.3125 μM in PBS) was determined as 0.0186; in series [3] (0.625 μM in PBS), 0.0159; in series [3] (1.25 μM in PBS) it was 0.0354; in series [3] (5 μM in PBS), 0.0298. For the same compound, the “Water Dispersibility” value in series [4] is given as “less than 0.6 mg/100 mL”. For the same compound, the FRAP in series [5] turned out to be 0.189.
For `COc1ccc2[nH]cc(CCNC(=O)CNC(=O)CCC(=O)O[C@@H]3CC(C)=C(/C=C/C(C)=C/C=C/C(C)=C/C=C/C=C(C)/C=C/C=C(C)/C=C/C(=O)[C@]4(C)C[C@@H](OC(=O)CCC(=O)NCC(=O)NCCc5c[nH]c6ccc(OC)cc56)CC4(C)C)C(C)(C)C3)c2c1` [Compound 17, Capsanthin-dimelatonin conjugate], the melting point lay within 130 to 131 °C. In series [1], the “TEAC from DMSO” value worked out at 2.53 and the “TEAC from THF” value amounted to 1.519. Also, in series [2] (from THF:aqueous solutions), the “type of aggregates formed” value is “J-type (head-to-tail) aggregates”. The “change of UV spectrum with increasing ratio of PBS” value in series [2] was “bathochromic shift”. Besides, in series [3] (setting [6]), the “mean size (hydrodynamic diameter)” value is 24.42 nm and the zeta potential is reported as −31.0 mV. Further, the PDI in series [3] (0.3125 μM in PBS) amounted to 0.0408. Moreover, in series [3] (setting [7]), the “mean size (hydrodynamic diameter)” value stood at 43.47 nm and the zeta potential is −22.9 mV. Besides, the PDI in series [3] (0.625 μM in PBS) was determined as 0.1239. In addition, in series [3] (1.25 μM in PBS from DMSO stock), the “mean size (hydrodynamic diameter)” value is recorded as 101.60 nm and the zeta potential was −21.1 mV. In series [3] (1.25 μM in PBS), the PDI is given as 0.1362. For the same compound, in series [3] (2.5 μM in PBS from DMSO stock), the “mean size (hydrodynamic diameter)” value was 226.30 nm and the zeta potential is reported as −22.2 mV. The same compound registered a PDI in series [3] (2.5 μM in PBS) of 0.1650. In series [3] (3.75 μM in PBS from DMSO stock), the “mean size (hydrodynamic diameter)” value came out at 58.55 nm and the zeta potential is −27.5 mV. For the same compound, the PDI in series [3] (3.75 μM in PBS) was 0.1693. For the same compound, in series [3] (5 μM in PBS from DMSO stock), the “mean size (hydrodynamic diameter)” value came out at 236.60 nm and the zeta potential is reported as −27.0 mV. The compound also yielded a PDI in series [3] (5 μM in PBS) of 0.1273. The FRAP in series [5] is given as 0.629.
With `COc1ccc2[nH]cc(CCNC(=O)CNC(=O)CCC(=O)OC/C(C)=C/C=C/C(C)=C/C=C/C=C(C)/C=C/C=C(C)/C=C/C3=C(C)CCCC3(C)C)c2c1` [Compound 18, 8′-Apo-β-carotenol-melatonin conjugate], the melting point was in the range of 123 to 124 °C. In addition, in series [1], the “TEAC from DMSO” value is 3.00 and the “TEAC from THF” value worked out at 2.891. Further, the “change of UV spectrum with increasing ratio of PBS” value in series [2] is “did not cause much change”. Further, in series [3] (setting [6]), the “mean size (hydrodynamic diameter)” value is recorded as 148.60 nm and the zeta potential is reported as −22.0 mV. The compound further returned a PDI in series [3] (0.3125 μM in PBS) of 0.0199. Besides, in series [3] (setting [7]), the “mean size (hydrodynamic diameter)” value turned out to be 212.00 nm and the zeta potential is on record as −22.8 mV. In series [3] (0.625 μM in PBS), this compound displayed a PDI of 0.0397. Besides, in series [3] (1.25 μM in PBS from DMSO stock), the “mean size (hydrodynamic diameter)” value came out at 127.50 nm and the zeta potential is on record as −24.5 mV. In addition, the PDI in series [3] (1.25 μM in PBS) turned out to be 0.0726. In series [3] (2.5 μM in PBS from DMSO stock), the “mean size (hydrodynamic diameter)” value is given as 93.29 nm and the zeta potential is −29.5 mV. In series [3] (2.5 μM in PBS), the PDI is 0.1229. Also, in series [3] (3.75 μM in PBS from DMSO stock), the “mean size (hydrodynamic diameter)” value came out at 182.80 nm and the zeta potential is reported as −31.4 mV. In series [3] (3.75 μM in PBS), this compound gave a PDI of 0.1662. In series [3] (5 μM in PBS from DMSO stock), the “mean size (hydrodynamic diameter)” value is 201.10 nm and the zeta potential is −37.5 mV. In series [3] (5 μM in PBS), this compound registered a PDI of 0.1788. Moreover, the FRAP in series [5] came to 0.123.
